The source of these data is patent US11370761B2, “Voltage-dependent T-type calcium channel inhibitor” (Nippon Chemiphar Co., Ltd., priority 2017, dated 2022).

In assay [1] the test system is mouse partial sciatic nerve ligation (PSNL) model. The assay can be described thus: Mechanical allodynia in mouse partial sciatic nerve ligation (PSNL) model, von Frey filament test (Pharmacological Test 3). The format is in vivo. The following applies: 30 mg/kg orally administered. The method, then:
A mouse PSNL model was prepared according to a method of Seltzer et al. A mouse was anesthetized by inhalation with isoflurane. A femoral region of the mouse was shaved and disinfected with isodine. Skin on a femur of the mouse was incised, fascia just below the skin was cut off, and muscle heads of musculus biceps femoris were divided. After confirmation of sciatic nerves just below the muscle, and the sciatic nerves were separated without damage. ½ to ⅓ of the sciatic nerve was penetrated by a needle with 8-0 silk and ligated. The skin was sutured and the mouse was reared for about 7 days. In surgery of a sham control mouse, only confirmation of the sciatic nerves was performed and then the skin was sutured.
A pain threshold was measured after moving the mice to a cage for measurement and waiting for the exploratory behavior to disappear. Regarding the pain threshold (paw withdrawal filament ((g)), soles of the mice were stimulated with von Frey filaments (Sttoelting Co.: TOUCH-TEST SENSORY EVLUATOR) having different stimulation intensities, and the presence or absence of avoidance response was observed. A 50% threshold was calculated by an up down method with reference to a method of Chaplan et al. (Quantitative assessment of tactile allodynia in the rat paw. J neurosci Methods, 53, 1994, 55 to 63). […]

Assay [2] has as its target T1, human Cav3.2 channel (Homo sapiens, UniProt O95180).
T1 construct: expressed in transfected cells
The assay can be described thus: Electrophysiological evaluation, automated whole-cell patch clamp of Cav3.2 channel current (Pharmacological Test 2). The format is cell-based. To be noted: for inhibition at 0.3 µM: 0.3 μM test compound, holding potential −80 mV, depolarization to −20 mV, read-out: Cav3.2 channel current inhibition rate in test compound of 0.3 μM (holding potential of −80 mV) (%). Here is the method: The human Cav3.2 channel expressing stable cell line prepared by the test method (1) of Example 36 was seeded in a 10-cm dish using a DMEM medium containing 10% FBS, followed by culturing 37° C. for 24 hours under a 5% CO2 condition. The cells were detached using Accutase, and suspended in ice-cooled extracellular fluid for use. A Cav3.2 channel current was measured using an automated patch clamp system (Port-a-Patch; Nanion Technologies, EPC-10; HEKA Elektronik GmbH, Patchmaster; HEKA Elektronik GmbH) and buffers shown below, by a whole-cell patch-clamp method. The measurement of the Cav3.2 channel current was performed at room temperature, a measurement condition was a holding potential of −80 mV, a depolarization potential was −20 mV, a depolarization time was 100 msec, and a depolarization frequency was 10 sec. The Cav3.2 channel current was a peak value of an inward current observed at the time of depolarization to −20 mV.
The test compound was obtained by diluting a DMSO solution 1000 times with extracellular fluid to prepare a solution having a target concentration. The test compound was applied using an external perfusion system (Nanion Technologies) until the Cav3.2 channel current was stabilized, and a maximum of five concentrations from the low concentration side were cumulatively applied. An inhibition rate of the test compound was calculated from a change rate between a current value immediately before application of the test compound and the Cav3.2 channel current after application of the test compound (in a condition of holding potential of −80 mV, a concentration of the test compound was 0.3 μM, and in a condition of holding potential of −100 mV, a concentration of the test compound was 3 μM).
Extracellular fluid: 135 mM NaCl, 4 mM KCl, 1 mM MgCl2, 5 mM CaCl2, 5 mM D-Glucose, 10 mM HEPES, pH 7.4
Electrode internal fluid: 10 mM NaCl, 10 mM HEPES, 50 mM CsCl, 60 mM Cs-Fluoride, 20 mM EGTA, pH 7.2
On the technique in general: In patch-clamp work, channel activity is measured electrically.

The target of assay [3] is T1, human Cav3.2 channel. The assay can be described thus: Intracellular calcium concentration measurement in human Cav3.2 channel expressing stable cell line (Pharmacological Test 1). The class given is cell-based. The following applies: HEK293 cells stably expressing human Cav3.2, Fluo-4 AM fluorescence, KCl stimulation; read-out: Cav3.2 channel inhibitory action. A digest of the protocol:
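HEK293 cells stably expressing human Cav3.2 were loaded with Fluo-4 AM for 45 min, then preincubated 15 min at room temperature with compound (0.1% DMSO) in B buffer (K+ equilibrium potential −92 mV). After ionophore addition, cells were depolarized with 83.8 mM KCl and calcium influx was read for 10 s (ex 485/em 510 nm). IC50 was fitted from maximal fluorescence increase over baseline.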
A general note: A change in cytosolic calcium serves as a functional read-out for many receptors and channels.

T1 sequence (O95180 whole entry): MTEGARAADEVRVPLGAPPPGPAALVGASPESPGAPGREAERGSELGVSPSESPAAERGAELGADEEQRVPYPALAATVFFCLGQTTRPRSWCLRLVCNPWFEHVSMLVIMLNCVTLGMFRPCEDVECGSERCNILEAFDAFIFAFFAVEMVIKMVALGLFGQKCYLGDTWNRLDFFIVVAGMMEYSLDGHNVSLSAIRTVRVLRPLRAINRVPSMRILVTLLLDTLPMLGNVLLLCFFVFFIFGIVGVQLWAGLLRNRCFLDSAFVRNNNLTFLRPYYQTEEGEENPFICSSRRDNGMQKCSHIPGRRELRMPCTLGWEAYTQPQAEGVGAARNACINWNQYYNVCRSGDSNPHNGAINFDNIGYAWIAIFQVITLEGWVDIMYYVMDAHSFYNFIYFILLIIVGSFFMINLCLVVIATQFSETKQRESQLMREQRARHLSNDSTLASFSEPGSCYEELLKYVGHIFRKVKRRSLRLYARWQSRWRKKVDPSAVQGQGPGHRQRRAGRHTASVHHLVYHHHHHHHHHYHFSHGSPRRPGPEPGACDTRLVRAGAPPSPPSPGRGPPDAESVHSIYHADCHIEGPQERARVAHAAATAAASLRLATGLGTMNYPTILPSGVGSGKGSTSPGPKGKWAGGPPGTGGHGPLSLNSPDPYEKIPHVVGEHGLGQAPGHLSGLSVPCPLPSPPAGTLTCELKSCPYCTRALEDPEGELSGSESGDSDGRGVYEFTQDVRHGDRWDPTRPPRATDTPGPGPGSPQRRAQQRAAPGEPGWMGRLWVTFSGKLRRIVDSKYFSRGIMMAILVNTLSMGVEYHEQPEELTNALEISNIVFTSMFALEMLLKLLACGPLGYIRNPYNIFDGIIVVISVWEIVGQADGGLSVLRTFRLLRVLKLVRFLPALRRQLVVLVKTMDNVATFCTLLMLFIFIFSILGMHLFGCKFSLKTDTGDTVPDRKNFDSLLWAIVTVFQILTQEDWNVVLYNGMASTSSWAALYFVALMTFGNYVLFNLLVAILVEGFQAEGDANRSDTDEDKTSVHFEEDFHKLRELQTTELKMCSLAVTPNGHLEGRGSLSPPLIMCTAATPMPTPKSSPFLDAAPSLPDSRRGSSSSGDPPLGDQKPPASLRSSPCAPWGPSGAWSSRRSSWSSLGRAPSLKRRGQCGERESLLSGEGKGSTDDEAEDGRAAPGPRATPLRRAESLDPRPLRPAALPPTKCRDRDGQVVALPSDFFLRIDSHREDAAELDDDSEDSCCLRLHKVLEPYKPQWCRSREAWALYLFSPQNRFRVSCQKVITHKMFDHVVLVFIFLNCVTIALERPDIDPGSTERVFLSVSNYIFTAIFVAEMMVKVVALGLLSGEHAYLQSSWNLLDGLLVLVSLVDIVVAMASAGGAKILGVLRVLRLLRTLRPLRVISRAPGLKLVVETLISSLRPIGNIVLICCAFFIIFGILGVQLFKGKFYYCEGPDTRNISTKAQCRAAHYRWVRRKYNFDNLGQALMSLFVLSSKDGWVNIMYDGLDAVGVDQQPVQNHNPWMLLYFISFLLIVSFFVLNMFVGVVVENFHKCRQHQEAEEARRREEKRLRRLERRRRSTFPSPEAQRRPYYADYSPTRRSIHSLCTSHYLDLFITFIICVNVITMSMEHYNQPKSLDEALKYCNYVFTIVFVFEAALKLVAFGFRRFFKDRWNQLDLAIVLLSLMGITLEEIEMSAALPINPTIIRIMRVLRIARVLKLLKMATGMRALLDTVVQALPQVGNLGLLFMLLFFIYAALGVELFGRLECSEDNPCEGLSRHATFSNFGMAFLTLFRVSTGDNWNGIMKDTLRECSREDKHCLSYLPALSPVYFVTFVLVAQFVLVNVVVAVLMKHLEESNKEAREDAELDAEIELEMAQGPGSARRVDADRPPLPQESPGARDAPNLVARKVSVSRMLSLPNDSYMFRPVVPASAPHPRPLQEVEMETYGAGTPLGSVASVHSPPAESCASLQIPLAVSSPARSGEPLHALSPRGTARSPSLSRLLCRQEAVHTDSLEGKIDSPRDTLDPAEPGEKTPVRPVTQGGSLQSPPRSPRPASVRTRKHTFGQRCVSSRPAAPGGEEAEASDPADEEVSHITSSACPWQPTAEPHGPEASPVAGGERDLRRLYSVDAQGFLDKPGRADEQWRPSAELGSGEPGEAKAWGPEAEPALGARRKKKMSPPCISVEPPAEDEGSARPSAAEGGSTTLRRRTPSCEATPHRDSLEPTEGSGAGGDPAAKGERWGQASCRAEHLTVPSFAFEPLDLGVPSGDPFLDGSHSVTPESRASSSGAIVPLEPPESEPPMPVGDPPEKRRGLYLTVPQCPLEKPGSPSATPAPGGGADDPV

Regarding `CC(NC(=O)C1CC1c1nc2ccccc2[nH]1)C(=O)Nc1ccc(C(F)(F)F)nc1` (single isomer, unassigned) [Example 5A, Trans-2-(1H-benzo[d]imidazol-2-yl)-N-(1-oxo-1-((6-(trifluoromethyl)pyridin-3-yl)amino)propan-2-yl) cyclopropane-1-carboxamide], the “mechanical allodynia (pain threshold, von Frey filament test) compared to the vehicle group” value in assay [1] was “statistically significantly suppressed”. In assay [2], the inhibition – broadly, the share of the control response that was lost under treatment – at 0.3 µM amounted to 74%. The inhibition at 3 µM in assay [2] (3 μM test compound, holding potential −100 mV, read-out: Cav3.2 channel current inhibition rate in test compound of 3 μM (holding potential of −100 mV) (%)) worked out at 32%. In addition, the IC50 in assay [3] was in the range of 100 to 1000 nM.
As to `O=C(NC1(C(=O)Nc2ccc(OC(F)(F)F)cc2)CC1)[C@H]1C[C@@H]1c1nc2ccccc2[nH]1` [Example 24, 1-((1S, 2S)-2-(1H-Benzo[d]imidazol-2-yl)cyclopropane-1-carboxamido)-N-(4-(trifluoromethoxy)phenyl) cyclopropane-1-carboxamide], the inhibition at 0.3 µM in assay [2] stood at 68%. Besides, the IC50 in assay [3] is no more than 100 nM.
In the case of `O=C(NC1(C(=O)Nc2ccc(C(F)(F)F)cc2)CC1)[C@H]1C[C@@H]1c1nc2ccccc2[nH]1` [Example 26, 1-((1S, 2S)-2-(1H-Benzo[d]imidazol-2-yl)cyclopropane-1-carboxamido)-N-(4-(trifluoromethyl)phenyl) cyclopropane-1-carboxamide], the “mechanical allodynia (pain threshold, von Frey filament test) compared to the vehicle group” value in assay [1] is given as “statistically significantly suppressed”. In addition, the inhibition at 0.3 µM in assay [2] stood at 84%. In addition, the IC50 in assay [3] was no more than 100 nM.
